Data as given in ChEMBL document CHEMBL1201862, “PubChem BioAssay data set” (2004).
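Cells were grown in 96-well plates and exposed to each compound for 48 hours at five concentrations; endpoints were interpolated linearly between bracketing concentrations, or set to the highest concentration if not reached. Abbreviation: GI50, concentration required for 50% inhibition of growth.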 Active and inactive are the calls of the source. Cut-off read from the data, not from the text of the source: active = GI50 up to about 1.1 µM and inactive = higher.

How the values were obtained:
Test in all cases: NCI anticancer screen, dose series, 48 h
A498 = system: A498
A549 = system: A549
ACHN = system: ACHN
COLO 205 = system: COLO 205
HCC 2998 = system: HCC 2998
HCT-116 = system: HCT-116
HCT-15 = system: HCT-15
HOP-62 = system: HOP-62
HT-29 = system: HT-29
LOX IMVI = system: LOX IMVI
NCI-H23 = system: NCI-H23
OVCAR-4 = system: OVCAR-4
OVCAR-5 = system: OVCAR-5
RXF 393 = system: RXF 393
SF-268 = system: SF-268
SF-295 = system: SF-295
SNB-19 = system: SNB-19
SR = system: SR
MCF7 = system: MCF7
PC-3 = system: PC-3

N#CC(C(=O)C(=O)Nc1ccc(Cl)cc1)c1ccccc1 (configuration not stated)
GI50 (A498): > 100 µM (inactive) | GI50 (A549): > 100 µM (inactive) | GI50 (ACHN): > 100 µM (inactive) | GI50 (COLO 205): 93.1 µM (inactive) | GI50 (HCC 2998): > 100 µM (inactive) | GI50 (HCT-116): > 100 µM (inactive) | GI50 (HCT-15): > 100 µM | GI50 (HOP-62): 85.1 µM (inactive) | GI50 (HT-29): > 100 µM (inactive) | GI50 (LOX IMVI): > 100 µM (inactive) | GI50 (NCI-H23): > 100 µM (inactive) | GI50 (OVCAR-4): > 100 µM (inactive) | GI50 (OVCAR-5): > 100 µM (inactive) | GI50 (RXF 393): > 100 µM (inactive) | GI50 (SF-268): > 100 µM (inactive) | GI50 (SF-295): > 100 µM (inactive) | GI50 (SNB-19): > 100 µM (inactive) | GI50 (SR): > 100 µM (inactive)

COc1ccc2c(-c3csc(-c4c[nH]c5ccc(Br)cc45)n3)c[nH]c2c1
GI50 (A498): 89.3 µM (inactive) | GI50 (A549): 91.8 µM (inactive) | GI50 (ACHN): 70 µM (inactive) | GI50 (COLO 205): 54.1 µM (inactive) | GI50 (HCT-116): 31.3 µM (inactive) | GI50 (HCT-15): 7.53 µM | GI50 (HOP-62): 62.4 µM (inactive) | GI50 (HT-29): 77.6 µM (inactive) | GI50 (LOX IMVI): 64.1 µM (inactive) | GI50 (MCF7): 54.1 µM (inactive) | GI50 (NCI-H23): 64.9 µM (inactive) | GI50 (OVCAR-4): 70.5 µM (inactive) | GI50 (OVCAR-5): 42.8 µM (inactive) | GI50 (PC-3): 10.4 µM (inactive) | GI50 (RXF 393): 11.9 µM (inactive) | GI50 (SF-268): 25.9 µM (inactive) | GI50 (SF-295): 73.5 µM (inactive) | GI50 (SNB-19): > 100 µM (inactive)

O=C(OCC1CCCN2CCCCC12)c1cccnc1 (configuration not stated)
GI50 (A498): > 100 µM (inactive) | GI50 (A549): > 100 µM (inactive) | GI50 (ACHN): > 100 µM (inactive) | GI50 (COLO 205): > 100 µM (inactive) | GI50 (HCC 2998): > 100 µM (inactive) | GI50 (HCT-116): > 100 µM (inactive) | GI50 (HCT-15): > 100 µM | GI50 (HT-29): > 100 µM (inactive) | GI50 (LOX IMVI): > 100 µM (inactive) | GI50 (MCF7): > 100 µM (inactive) | GI50 (NCI-H23): > 100 µM (inactive) | GI50 (OVCAR-4): > 100 µM (inactive) | GI50 (PC-3): > 100 µM (inactive) | GI50 (RXF 393): > 100 µM (inactive) | GI50 (SF-268): > 100 µM (inactive) | GI50 (SF-295): > 100 µM (inactive) | GI50 (SNB-19): > 100 µM (inactive)

CN(C)/C=C/c1nnc([N+](=O)[O-])s1
GI50 (A498): 32 µM (inactive) | GI50 (A549): 19.9 µM (inactive) | GI50 (ACHN): 15.5 µM (inactive) | GI50 (COLO 205): 3.58 µM (inactive) | GI50 (HCC 2998): 17.3 µM (inactive) | GI50 (HCT-116): 5.94 µM (inactive) | GI50 (HCT-15): 12 µM | GI50 (HOP-62): 22.8 µM (inactive) | GI50 (HT-29): 3.57 µM (inactive) | GI50 (LOX IMVI): 2.69 µM (inactive) | GI50 (MCF7): 2.17 µM (inactive) | GI50 (NCI-H23): 19.3 µM (inactive) | GI50 (PC-3): 4.95 µM (inactive) | GI50 (RXF 393): 14.7 µM (inactive) | GI50 (SF-268): 14.6 µM (inactive) | GI50 (SF-295): 13.8 µM (inactive) | GI50 (SNB-19): 26.3 µM (inactive)

C[C@]12CC[C@H]3[C@@H](CC[C@]4(O)C[C@@H](O)CC[C@]34/C=N/O)[C@@]1(O)CC[C@@H]2C1=COC(=O)C1
GI50 (A498): 0.0929 µM (active) | GI50 (A549): 0.0336 µM (active) | GI50 (ACHN): 0.0404 µM (active) | GI50 (COLO 205): 0.474 µM (active) | GI50 (HCC 2998): 0.251 µM (active) | GI50 (HCT-116): 0.0403 µM (active) | GI50 (HCT-15): 0.158 µM | GI50 (HOP-62): 0.102 µM (active) | GI50 (HT-29): 0.146 µM (active) | GI50 (LOX IMVI): 0.136 µM (active) | GI50 (NCI-H23): 0.0644 µM (active) | GI50 (OVCAR-4): 0.0608 µM (active) | GI50 (OVCAR-5): 0.318 µM (active) | GI50 (PC-3): 0.149 µM (active) | GI50 (RXF 393): 0.0318 µM (active) | GI50 (SF-268): 0.0728 µM (active) | GI50 (SF-295): 0.0545 µM (active) | GI50 (SNB-19): 0.673 µM (active) | GI50 (SR): 0.0504 µM (active)

Brc1ccc2c(C3CN[C@@H](c4c[nH]c5cc(Br)ccc45)CN3)c[nH]c2c1 (some centres not stated)
GI50 (A498): 1.79 µM (inactive) | GI50 (A549): 2.8 µM (inactive) | GI50 (ACHN): 3.46 µM (inactive) | GI50 (COLO 205): 1.9 µM (inactive) | GI50 (HCC 2998): 2 µM (inactive) | GI50 (HCT-116): 1.69 µM (inactive) | GI50 (HCT-15): 3.61 µM | GI50 (HOP-62): 3.94 µM (inactive) | GI50 (HT-29): 2.79 µM (inactive) | GI50 (LOX IMVI): 2.61 µM (inactive) | GI50 (NCI-H23): 2.34 µM (inactive) | GI50 (OVCAR-4): 3.31 µM (inactive) | GI50 (OVCAR-5): 2.48 µM (inactive) | GI50 (RXF 393): 1.55 µM (inactive) | GI50 (SF-268): 4.78 µM (inactive) | GI50 (SF-295): 3.4 µM (inactive) | GI50 (SNB-19): 9.46 µM (inactive) | GI50 (SR): 0.968 µM (active)
